According to patent US10544130B2, “Metallo-beta-lactamase inhibitors” (priority 2015, dated 2020):
Where two headings read alike, the source gives them in different places.

Columns and labels:
[1] = test system: Escherichia coli expressing NDM-1 (CLB30005, CLB30016); assay type: cell-based; conditions: with imipenem 1 μg/ml, 95% inhibition of bacterial growth
Description: (§1) Antibiotic Potentiation Activity: Determination of Synergistic Concentration
(§2) The bacterial strains tested included the clinical strains Escherichia coli expressing NDM-1 (CLB30005, CLB30016), Serratia marcescens expressing IMP-1 (CL5741), and Klebsiella pneumoniae expressing VIM-1 (IHMA599644). Inhibitor activity was measured in the presence and absence of imipenem in a 384-well microplate.
(§3) The clinical strains CLB30016, CL5741 and IHMA599644 were grown on trypticase soy agar containing 5% sheep's blood. The bacteria on agar plates were incubated at 35° C. with humidity overnight. The following day, individual colonies from each clinical strain were picked and resuspended in 5 ml saline to attain an OD600 of 0.14, 0.11, 0.15 and 0.13, for CLB30016, CL5741 and IHMA599644, respectively. These were further diluted 1:100 into 1.1× CAMHB and used to inoculate the test wells as described below.
(§4) Imipenem in 10 mM 3-(N-morpholino)propanesulfonic acid (MOPS, pH 7) was stored in single use aliquots at −80° C. […] On the day of the assay, 4 μl of antibiotic was added to 45 ul of bacteria followed by 1 μl of test compound and mixed by pipetting and with an orbital shaker. The concentration of antibiotic used in the assay was 1 μg/ml. Microplates were covered and incubated at 35° C. for 22 hours to 24 hours. At the end of the incubation, absorbance was determined using a spectrophotometer.

[2] = test system: Pseudomonas aeruginosa PAO1 MB9798 (efflux+, IMP-1); conditions: ratio MITC95 PA 9798/MITC95 PA 9799; imipenem at 2 μg/mL
Method in brief: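 Isogenic PAO1 pair (efflux+ MB9798, efflux− MB9799, both IMP-1) tested by microbroth MIC with fixed imipenem and/or ceftazidime, usually at CLSI breakpoint, plus fixed class A/C inhibitor against AmpC. MBL inhibitor titrated; concentration restoring susceptibility recorded and fold difference between strains taken as efflux extent.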

[3] = test system: Serratia marcescens expressing IMP-1 (CL5741); assay type: cell-based; conditions: with imipenem 1 μg/ml; 95% inhibition of bacterial growth
Description: as §1, §2, §3, §4

**Q.** Which “Escherichia coli (NDM-1) MITC95” value [1] does the source give for `C[C@H](CN)NS(=O)(=O)c1ccc(-c2cc(F)cc3[nH]c(N)nc23)c(-c2nn[nH]n2)c1S(N)(=O)=O` [Example 396, (R)-4-(2-amino-6-fluoro-1H-benzo[d]imidazol-4-yl)-N^1-(1-aminopropan-2-yl)-3-(2H-tetrazol-5-yl)benzene-1,2-disulfonamide] here?
**A.** 0.7813 µM

**Q.** Which results are given for `Nc1ccc2cccc(-c3ccc(S(=O)(=O)N[C@H]4CNC[C@H]4N)c(S(N)(=O)=O)c3-c3nn[nH]n3)c2n1` [Example 324, N1-((3S,4R)-4-aminopyrrolidin-3-yl)-4-(2-aminoquinolin-8-yl)-3-(1H-tetrazol-5-yl)benzene-1,2-disulfonamide]?
**A.** Efflux ratio [2]: 1.00; Serratia marcescens (IMP-1) MITC95 [3]: 0.7813 µM

**Q.** With `NCCNS(=O)(=O)c1ccc(-c2ccc3[nH]c(CN)nc3c2)c(-c2nn[nH]n2)c1S(N)(=O)=O` [Example 466, N1-(2-aminoethyl)-4-(2-(aminomethyl)-1H-benzo[d]imidazol-5-yl)-3-(2H-tetrazol-5-yl)benzene-1,2-disulfonamide] as the compound, how does the “Escherichia coli (NDM-1) MITC95” value [1] read?
**A.** 0.7813 µM

**Q.** `CN1CC(NS(=O)(=O)c2ccc(-c3cccc4[nH]c(N)nc34)c(-c3nn[nH]n3)c2S(N)(=O)=O)C1` [Example 256, 4-(2-amino-1H-benzo[d]imidazol-4-yl)-N1-(1-methylazetidin-3-yl)-3-(2H-tetrazol-5-yl)benzene-1,2-disulfonamide] was tested. Which Efflux ratio [2] did it give?
**A.** 1.00

**Q.** What about the “Serratia marcescens (IMP-1) MITC95” value [3] of the same compound?
**A.** 0.7813 µM

**Q.** For `N[C@@H]1C=C(c2ccc(S(=O)(=O)N[C@@H]3CCNC3)c(S(N)(=O)=O)c2-c2nn[nH]n2)CCC1` [Example 340, (S)-5′-amino-N4-((R)-pyrrolidin-3-yl)-2-(2H-tetrazol-5-yl)-2′,3′,4′,5′-tetrahydro[1,1′-biphenyl]-3,4-disulfonamide], which Efflux ratio [2] is on record?
**A.** 4.00

**Q.** And the “Serratia marcescens (IMP-1) MITC95” value [3]?
**A.** 1.563 µM

**Q.** With `C[C@@H](CCN)NS(=O)(=O)c1ccc(-c2ccc(N)nc2)c(-c2nn[nH]n2)c1S(N)(=O)=O` [Example 499, (5)-N1-(4-aminobutan-2-yl)-4-(6-aminopyridin-3-yl)-3-(1H-tetrazol-5-yl)benzene-1,2-disulfonamide] as the compound, how does the “Escherichia coli (NDM-1) MITC95” value ([1]; CLB30016) read?
**A.** 0.7813 µM

**Q.** With `C[N+]1(C)CC(NS(=O)(=O)c2ccc(-c3cccc4[nH]c(N)nc34)c(-c3nn[nH]n3)c2S(N)(=O)=O)C1.O=C([O-])O` [Example 245, 3-(4-(2-Amino-1H-benzo[d]imidazol-4-yl)-2-sulfamoyl-3-(2H-tetrazol-5-yl)phenylsulfonamido)-1,1-dimethylazetidin-1-ium hydrogencarbonate] as the compound, how does the Efflux ratio [2] read?
**A.** 1.00

**Q.** What about the “Serratia marcescens (IMP-1) MITC95” value [3] of the same compound?
**A.** 1.563 µM

**Q.** Which Efflux ratio [2] does the source give for `Nc1nc2c(-c3ccc(S(=O)(=O)NC[C@H]4CCNC4)c(S(N)(=O)=O)c3-c3nn[nH]n3)cccc2[nH]1` [Example 259, (S)-4-(2-amino-1H-benzo[d]imidazol-4-yl)-N1-(pyrrolidin-3-ylmethyl)-3-(2H-tetrazol-5-yl)benzene-1,2-disulfonamide] here?
**A.** 1.00

**Q.** And the “Serratia marcescens (IMP-1) MITC95” value [3]?
**A.** 0.7813 µM

**Q.** For `NCC(CN)NS(=O)(=O)c1ccc(-c2cccc3sc(N)nc23)c(-c2nn[nH]n2)c1S(N)(=O)=O` [Example 436, 4-(2-aminobenzo[d]thiazol-4-yl)-N1-(1,3-diaminopropan-2-yl)-3-(2H-tetrazol-5-yl)benzene-1,2-disulfonamide], which “Escherichia coli (NDM-1) MITC95” value [1] is on record?
**A.** 0.7813 µM

**Q.** Which “Escherichia coli (NDM-1) MITC95” value [1] does the source give for `NCc1nc2cc(-c3ccc(S(=O)(=O)NC[C@@H](O)CN)c(S(N)(=O)=O)c3-c3nn[nH]n3)ccc2s1` [Example 473, (S)-N1-(3-amino-2-hydroxypropyl)-4-(2-(aminomethyl)benzo[d]thiazol-5-yl)-3-(2H-tetrazol-5-yl)benzene-1,2-disulfonamide] here?
**A.** 0.7813 µM

**Q.** Which Efflux ratio [2] does the source give for `Cn1c(N)nc2c(-c3ccc(S(=O)(=O)NC[C@@H](O)CN)c(S(N)(=O)=O)c3-c3nn[nH]n3)cccc21` [Example 308, (S)-4-(2-amino-1-methyl-1H-benzo[d]imidazol-4-yl)-N1-(3-amino-2-hydroxypropyl)-3-(2H-tetrazol-5-yl)benzene-1,2-disulfonamide] here?
**A.** 1.00

**Q.** What about the “Serratia marcescens (IMP-1) MITC95” value [3] of the same compound?
**A.** 0.7813 µM

**Q.** How did the “Escherichia coli (NDM-1) MITC95” value [1] turn out when `NCCNS(=O)(=O)c1ccc(-c2cccc3c2CCCN3)c(-c2nn[nH]n2)c1S(N)(=O)=O` [Example 455, N1-(2-Aminoethyl)-4-(1,2,3,4-tetrahydroquinolin-5-yl)-3-(2H-tetrazol-5-yl)benzene-1,2-disulfonamide] was run?
**A.** 1.563 µM

**Q.** For `NCc1nc2cc(-c3ccc(S(=O)(=O)N[C@@H](CN)CO)c(S(N)(=O)=O)c3-c3nn[nH]n3)ccc2[nH]1` [Example 474, (S)-N1-(1-amino-3-hydroxypropan-2-yl)-4-(2-(aminomethyl)-1H-benzo[d]imidazol-5-yl)-3-(2H-tetrazol-5-yl)benzene-1,2-disulfonamide], which “Escherichia coli (NDM-1) MITC95” value [1] is on record?
**A.** 0.7813 µM

**Q.** Which “Escherichia coli (NDM-1) MITC95” value [1] does the source give for `NCc1nc2cc(-c3ccc(S(=O)(=O)NC[C@H](O)CN)c(S(N)(=O)=O)c3-c3nn[nH]n3)ccc2[nH]1` [Example 464, (R)—N1-(3-amino-2-hydroxypropyl)-4-(2-(aminomethyl)-1H-benzo[d]imidazole-5-yl)-3-(2H-tetrazol-5-yl)benzene-1,2-disulfonamide] here?
**A.** 0.7813 µM

**Q.** `NCc1nc2cc(-c3ccc(S(=O)(=O)NC[C@@H](O)CN)c(S(N)(=O)=O)c3-c3nn[nH]n3)ccc2[nH]1` [Example 465, (S)-N1-(3-amino-2-hydroxypropyl)-4-(2-(aminomethyl)-1H-benzo[d]imidazol-5-yl)-3-(2H-tetrazol-5-yl)benzene-1,2-disulfonamide] was tested. Which “Escherichia coli (NDM-1) MITC95” value [1] did it give?
**A.** 0.7813 µM

**Q.** With `NCCNS(=O)(=O)c1ccc(-c2cccc3ccc(N)nc23)c(-c2nn[nH]n2)c1S(N)(=O)=O` [Example 355, N1-(2-aminoethyl)-4-(2-aminoquinolin-8-yl)-3-(2H-tetrazol-5-yl)benzene-1,2-disulfonamide] as the compound, how does the Efflux ratio [2] read?
**A.** 1.00

**Q.** What about the “Serratia marcescens (IMP-1) MITC95” value [3] of the same compound?
**A.** 0.7813 µM

**Q.** `NCCCCNS(=O)(=O)c1ccc(-c2cccc3[nH]c(N)nc23)c(-c2nn[nH]n2)c1S(N)(=O)=O` [Example 258, 4-(2-amino-1H-benzo[d]imidazol-7-yl)-N1-(4-aminobutyl)-3-(2H-tetrazol-5-yl)benzene-1,2-disulfonamide] was tested. Which Efflux ratio [2] did it give?
**A.** 1.00

**Q.** What about the “Serratia marcescens (IMP-1) MITC95” value [3] of the same compound?
**A.** 0.7813 µM

**Q.** What does the source list for `NCC(CN)NS(=O)(=O)c1ccc(-c2cccn3ccnc23)c(-c2nn[nH]n2)c1S(N)(=O)=O` [Example 386, N1-(1,3-diaminopropan-2-yl)-4-(imidazo[1,2-a]pyridin-8-yl)-3-(2H-tetrazol-5-yl) benzene-1,2-disulfonamide]?
**A.** Efflux ratio [2]: 1.00; Serratia marcescens (IMP-1) MITC95 [3]: 1.563 µM

**Q.** How did the Efflux ratio [2] turn out when `Nc1nc2c(-c3ccc(S(=O)(=O)NC[C@]4(N)CCNC4)c(S(N)(=O)=O)c3-c3nn[nH]n3)cccc2[nH]1` [Example 250, (S)-4-(2-amino-1H-benzo[d]imidazol-4-yl)-N1-((3-aminopyrrolidin-3-yl)methyl)-3-(2H-tetrazol-5-yl)benzene-1,2-disulfonamide] was run?
**A.** 1.00

**Q.** What about the “Serratia marcescens (IMP-1) MITC95” value [3] of the same compound?
**A.** 0.7813 µM

**Q.** `N[C@H]1C=C(c2ccc(S(=O)(=O)N[C@@H]3CCNC3)c(S(N)(=O)=O)c2-c2nn[nH]n2)CCC1` [Example 339, (R)-5′-amino-N4-((R)-pyrrolidin-3-yl)-2-(2H-tetrazol-5-yl)-2′,3′,4′,5′-tetrahydro-[1,1′-biphenyl]-3,4-disulfonamide] was tested. Which Efflux ratio [2] did it give?
**A.** 4.00

**Q.** And the “Serratia marcescens (IMP-1) MITC95” value [3]?
**A.** 1.563 µM

**Q.** Which Efflux ratio [2] does the source give for `Nc1nc2c(-c3ccc(S(=O)(=O)NC[C@@H]4CCNC4)c(S(N)(=O)=O)c3-c3nn[nH]n3)cccc2[nH]1` [Example 263, (R)-4-(2-amino-1H-benzo[d]imidazol-4-yl)-N1-(pyrrolidin-3-ylmethyl)-3-(2H-tetrazol-5-yl)benzene-1,2-disulfonamide] here?
**A.** 1.00

**Q.** What about the “Serratia marcescens (IMP-1) MITC95” value [3] of the same compound?
**A.** 0.7813 µM

**Q.** With `NCCNS(=O)(=O)c1ccc(-c2cccn3ccnc23)c(-c2nn[nH]n2)c1S(N)(=O)=O` [Example 361, N1-(2-aminoethyl)-4-(imidazo[1,2-a]pyridin-8-yl)-3-(2H-tetrazol-5-yl)benzene-1,2-disulfonamide] as the compound, how does the Efflux ratio [2] read?
**A.** 1.00

**Q.** And the “Serratia marcescens (IMP-1) MITC95” value [3]?
**A.** 0.7813 µM

**Q.** With `CC[C@H](CN)NS(=O)(=O)c1ccc(-c2cccc3[nH]c(N)nc23)c(-c2nn[nH]n2)c1S(N)(=O)=O` [Example 265, (R)-4-(2-amino-1H-benzo[d]imidazol-4-yl)-N1-(1-aminobutan-2-yl)-3-(2H-tetrazol-5-yl)benzene-1,2-disulfonamide] as the compound, how does the Efflux ratio [2] read?
**A.** 1.00

**Q.** And the “Serratia marcescens (IMP-1) MITC95” value [3]?
**A.** 0.7813 µM

**Q.** How did the Efflux ratio [2] turn out when `NCCNS(=O)(=O)c1ccc(-c2cccc3[nH]c([C@H](N)CO)nc23)c(-c2nn[nH]n2)c1S(N)(=O)=O` [Example 330, (S)-4-(2-(1-amino-2-hydroxyethyl)-1H-benzo[d]imidazol-4-yl)-N1-(2-aminoethyl)-3-(2H-tetrazol-5-yl)benzene-1,2-disulfonamide] was run?
**A.** 1.00

**Q.** What about the “Serratia marcescens (IMP-1) MITC95” value [3] of the same compound?
**A.** 1.563 µM
